In patent US20250368648A1, “MULTI-CYCLIC IRAK AND FLT3 INHIBITING COMPOUNDS AND USES THEREOF” (CHILDREN'S HOSPITAL MEDICAL CENTER, priority 2022, published 2025):

Tests used:
IRAK4 = target: T1, IRAK4 (Homo sapiens, UniProt Q9NWZ3); assay: RBC HotSpot Kinase Assay, IRAK4; assay type: biochemical; design: purchased RBC (Reaction Biology) HotSpot assay; conditions: HotSpot functional assay, isolated kinase enzyme, 33P-ATP
T1 sequence (Q9NWZ3 1-460): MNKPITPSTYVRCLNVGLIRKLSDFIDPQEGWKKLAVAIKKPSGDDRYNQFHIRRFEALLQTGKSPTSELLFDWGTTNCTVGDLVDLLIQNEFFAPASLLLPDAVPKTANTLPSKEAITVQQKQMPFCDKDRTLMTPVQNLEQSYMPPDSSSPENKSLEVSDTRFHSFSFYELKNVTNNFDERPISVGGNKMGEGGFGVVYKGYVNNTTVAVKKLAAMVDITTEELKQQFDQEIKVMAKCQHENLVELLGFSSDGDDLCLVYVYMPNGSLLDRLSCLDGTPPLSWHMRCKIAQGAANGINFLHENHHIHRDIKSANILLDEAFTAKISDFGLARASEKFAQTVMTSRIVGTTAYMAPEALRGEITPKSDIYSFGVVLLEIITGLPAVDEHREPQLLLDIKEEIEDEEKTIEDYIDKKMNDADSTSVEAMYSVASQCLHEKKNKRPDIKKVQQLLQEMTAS
Source text: (§1) This assay uses the isolated kinase enzyme. This assay is very useful for determining competition of the inhibitor for ATP and/or substrates and for measuring the kinetics of enzyme inhibition. […] Unlike kinase binding assays that measure competition for ATP, the HotSpot Kinase Assay is a functional assay that measures catalytic activity; as such it measures relative functional potency regardless of the mechanism of enzyme inhibition. This assay uses the form of the various enzymes that are easiest to express, which may not necessarily be the form of the enzyme that exist in the cell. (Sometimes the carboxy terminus has been truncated to aid in expression, or, if it is a receptor kinase, the enzyme itself is isolated from the other parts of the receptor that are involved in regulating kinase activity.)
(§2) The reagent used was as follows: Base Reaction buffer; 20 mM Hepes (pH 7.5), 10 mM MgCl2, 1 mM EGTA, 0.01% Brij35, 0.02 mg/mi BSA, 0.1 mM Na3VO4, 2 mM DTT, 1% DMSO. Required cofactors were added individually to each kinase reaction.
(§3) The reaction procedure was as follows: • 1) Substrates were prepared in freshly prepared Reaction Buffer. • 2) Any required cofactors were delivered to the substrate solution above. • 3) Kinase was delivered into the substrate solution and gently mixed. • 4) Compounds were delivered in 100% DMSO into the kinase reaction mixture by Acoustic technology (Echo550, nanoliter range), followed by incubation for 20 min at room temp. • 5) ^33P-ATP was delivered into the reaction mixture to initiate the reaction. • 6) The mixture was incubated for 2 hours at room temperature. • 7) Kinase activity was detected by P81 filter-binding method.

MOLM14 D835Y cells = assay: MOLM14 D835Y cell viability assay (Cell Titer Glo); assay type: cell-based
Protocol: The cell line has activated FLT3 receptors which carry additional resistance mutations in the kinase domain (D835Y).
MOLM14 D835Y cells were grown in RPMI-1640 media supplemented with 20% fetal bovine serum (FBS). […] After cell addition, 23 nL of test compound were transferred into individual wells (22 doses tested for each test compound, with a 1:2 dilution series starting at 10 μM) via a 1536 pin-tool. Bortezomib (final concentration 2.3 μM) was used as a positive control for cell cytotoxicity.

FLT3 = target: T2, FLT3 (Homo sapiens, UniProt P36888); assay: RBC HotSpot Kinase Assay, FLT3; assay type: biochemical; design: purchased RBC (Reaction Biology) HotSpot assay; conditions: HotSpot functional assay, isolated kinase enzyme, 33P-ATP
T2 sequence (P36888 27-993): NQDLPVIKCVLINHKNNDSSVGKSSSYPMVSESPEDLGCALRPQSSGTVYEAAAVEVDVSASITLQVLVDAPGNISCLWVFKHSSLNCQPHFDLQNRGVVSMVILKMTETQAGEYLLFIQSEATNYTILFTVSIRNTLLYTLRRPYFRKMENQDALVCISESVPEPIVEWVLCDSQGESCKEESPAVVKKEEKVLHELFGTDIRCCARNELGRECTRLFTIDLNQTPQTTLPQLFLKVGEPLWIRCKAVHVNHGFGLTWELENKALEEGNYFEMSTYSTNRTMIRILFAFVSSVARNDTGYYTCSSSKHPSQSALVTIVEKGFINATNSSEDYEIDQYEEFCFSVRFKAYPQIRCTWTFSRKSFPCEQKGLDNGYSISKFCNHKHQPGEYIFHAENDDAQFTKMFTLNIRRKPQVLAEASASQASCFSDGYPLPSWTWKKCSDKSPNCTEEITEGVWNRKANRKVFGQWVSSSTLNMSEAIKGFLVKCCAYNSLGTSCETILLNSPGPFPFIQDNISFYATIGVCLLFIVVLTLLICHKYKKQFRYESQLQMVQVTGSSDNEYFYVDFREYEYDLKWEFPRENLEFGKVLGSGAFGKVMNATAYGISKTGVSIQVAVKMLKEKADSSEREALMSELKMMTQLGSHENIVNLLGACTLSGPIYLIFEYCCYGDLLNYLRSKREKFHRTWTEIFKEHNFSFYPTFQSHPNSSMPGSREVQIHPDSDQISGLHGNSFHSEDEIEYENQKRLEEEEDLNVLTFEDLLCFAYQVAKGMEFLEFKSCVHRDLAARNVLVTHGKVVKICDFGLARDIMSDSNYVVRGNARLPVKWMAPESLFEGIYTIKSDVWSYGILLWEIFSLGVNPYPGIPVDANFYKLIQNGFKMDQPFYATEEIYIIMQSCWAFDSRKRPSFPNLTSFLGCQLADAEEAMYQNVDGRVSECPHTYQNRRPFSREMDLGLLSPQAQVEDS
Source text: as §1, §2, §3

IRAK1 = target: T3, IRAK1 (Homo sapiens, UniProt P51617); assay: RBC HotSpot Kinase Assay, IRAK1; assay type: biochemical; conditions: HotSpot functional assay, isolated kinase enzyme, 33P-ATP
T3 construct: purchased RBC (Reaction Biology) HotSpot assay
Source text: as §1, §2, §3

T3 sequence (P51617 whole entry): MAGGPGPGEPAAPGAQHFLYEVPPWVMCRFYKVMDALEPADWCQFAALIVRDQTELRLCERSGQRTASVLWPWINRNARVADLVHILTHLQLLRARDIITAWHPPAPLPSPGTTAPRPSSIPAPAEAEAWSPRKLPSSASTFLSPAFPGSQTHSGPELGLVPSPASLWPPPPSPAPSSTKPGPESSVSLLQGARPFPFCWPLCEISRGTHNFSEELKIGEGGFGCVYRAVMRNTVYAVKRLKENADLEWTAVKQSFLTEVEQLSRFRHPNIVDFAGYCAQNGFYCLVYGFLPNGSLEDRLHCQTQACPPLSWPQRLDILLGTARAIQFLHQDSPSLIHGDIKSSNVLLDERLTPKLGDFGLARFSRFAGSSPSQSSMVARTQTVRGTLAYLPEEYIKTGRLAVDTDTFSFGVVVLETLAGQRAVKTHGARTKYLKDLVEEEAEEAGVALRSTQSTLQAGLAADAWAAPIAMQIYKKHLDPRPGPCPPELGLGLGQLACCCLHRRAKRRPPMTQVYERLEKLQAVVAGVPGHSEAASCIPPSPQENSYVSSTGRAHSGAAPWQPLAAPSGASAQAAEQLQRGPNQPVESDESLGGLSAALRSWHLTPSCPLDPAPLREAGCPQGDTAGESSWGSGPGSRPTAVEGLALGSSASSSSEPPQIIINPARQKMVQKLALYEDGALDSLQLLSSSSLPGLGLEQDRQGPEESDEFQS

| SMILES | IC50 (IRAK4) [nM] | IC50 (MOLM14 D835Y cells; 48 hours) [nM] | IC50 (FLT3) [nM] | IC50 (IRAK1) [nM] | IC50 (MOLM14 D835Y cells; Homo sapiens, MOLM-14, 48 h) [nM] |
| --- | --- | --- | --- | --- | --- |
| COc1cc2ncc(-c3nc(N[C@H]4CNCC[C@@H]4F)c(F)cc3F)n2nc1C(C)(O)C(F)(F)F (single isomer, unassigned) [Compound 76a] | 78 | 81 | < 0.5 | 580 | – |
| COc1cc2ncc(-c3nc(N[C@H]4CNC[C@@H]4F)c(F)cc3F)n2nc1C(C)(O)C(F)(F)F (single isomer, unassigned) [Compound 78a] | 92 | 229 | 1 | 983 | – |
| COc1cc2ncc(-c3nc(N[C@@H]4CCCNC4)c(F)cc3F)n2nc1C(C)(O)C(F)(F)F (single isomer, unassigned) [Compound 79a] | 521 | 81 | < 0.5 | 822 | – |
| COc1cc2ncc(-c3ccc(F)c(N[C@H]4CNCC[C@@H]4F)n3)n2nc1C(C)(C)O [Compound 1a, 2-(3-(5-fluoro-6-(((3S,4S)-4-fluoropiperidin-3-yl)amino)pyridin-2-yl)-7-methoxyimidazo[1,2-b]pyridazin-6-yl)propan-2-ol] | 158 | – | 3 | 2340 | 182 |
| COc1cc2ncc(-c3nc(N[C@H]4CNC[C@@H]4F)ccc3F)n2nc1C(C)(C)O [Compound 2a, 2-(3-(3-fluoro-6-(((3S,4S)-4-fluoropyrrolidin-3-yl)amino)pyridin-2-yl)-7-methoxyimidazo[1,2-b]pyridazin-6-yl)propan-2-ol] | 24 | – | 0.8 | 610 | 129 |
| COc1cc2ncc(-c3nc(N[C@@H]4CCCNC4)ccc3F)n2nc1C(C)(C)O [Compound 3a] | 148 | – | 1 | 437 | 46 |
| COc1cc2ncc(-c3nc(N[C@H]4CNCC[C@@H]4F)ccc3F)n2nc1C(C)(C)O [Compound 4a, 2-(3-(3-fluoro-6-(((3S,4S)-4-fluoropiperidin-3-yl)amino)pyridin-2-yl)-7-methoxyimidazo[1,2-b]pyridazin-6-yl)propan-2-ol] | 27 | – | < 0.5 | 221 | 29 |
| COc1cc2ncc(-c3cc(Oc4ccccc4)cc(N[C@@H]4CCCNC4)n3)n2nc1C1CC1 [Compound 59a, (R)-6-(6-cyclopropyl-7-methoxyimidazo[1,2-b]pyridazin-3-yl)-4-phenoxy-N-(piperidin-3-yl)pyridin-2-amine] | > 10000 | – | 96 | > 10000 | – |
| COc1cc2ncc(-c3cc(Oc4ccccc4)cc(N[C@H]4CNC[C@@H]4F)n3)n2nc1C1CC1 [Compound 60a, 6-(6-cyclopropyl-7-methoxyimidazo[1,2-b]pyridazin-3-yl)-N-((3S,4S)-4-fluoropyrrolidin-3-yl)-4-phenoxypyridin-2-amine] | > 10000 | – | 277 | > 10000 | – |
| COc1cc2ncc(-c3cc(Oc4ccccc4)cc(N[C@H]4CNCC[C@@H]4F)n3)n2nc1C1CC1 [Compound 61a, 6-(6-cyclopropyl-7-methoxyimidazo[1,2-b]pyridazin-3-yl)-N-((3S,4S)-4-fluoropiperidin-3-yl)-4-phenoxypyridin-2-amine] | > 10000 | – | 94 | > 10000 | – |
| COc1cc2ncc(-c3nc(N[C@@H]4CCCNC4)c(C)cc3C)n2nc1C1CC1 [Compound 62a] | > 10000 | – | 1420 | > 10000 | – |
| COc1cc2ncc(-c3nc(N[C@H]4CNC[C@@H]4F)c(C)cc3C)n2nc1C1CC1 [Compound 63a, 6-(6-cyclopropyl-7-methoxyimidazo[1,2-b]pyridazin-3-yl)-N-((3S,4S)-4-fluoropyrrolidin-3-yl)-3,5-dimethylpyridin-2-amine] | > 10000 | – | 377 | > 10000 | – |
| COc1cc2ncc(-c3nc(N[C@H]4CNCC[C@@H]4F)c(C)cc3C)n2nc1C1CC1 [Compound 64a, 6-(6-cyclopropyl-7-methoxyimidazo[1,2-b]pyridazin-3-yl)-N-((3S,4S)-4-fluoropiperidin-3-yl)-3,5-dimethylpyridin-2-amine] | > 10000 | – | 821 | > 10000 | – |
| COc1cc2ncc(-c3nc(N[C@H]4CNC[C@@H]4F)c(F)cc3F)n2nc1C12CC(C1)C2 [Compound 66a, 6-(6-(bicyclo[1.1.1]pentan-1-yl)-7-methoxyimidazo[1,2-b]pyridazin-3-yl)-3,5-difluoro-N-((3S,4S)-4-fluoropyrrolidin-3-yl)pyridin-2-amine] | 2 | – | < 0.5 | 21 | – |
| COc1cc2ncc(-c3nc(N[C@@H]4CCCNC4)c(F)cc3F)n2nc1N1CCCS1(=O)=O [Compound 68a, (R)-2-(3-(3,5-difluoro-6-(piperidin-3-ylamino)pyridin-2-yl)-7-methoxyimidazo[1,2-b]pyridazin-6-yl)isothiazolidine 1,1-dioxide] | 7 | – | < 0.5 | 19 | – |
| COc1cc2ncc(-c3nc(N[C@H]4CNC[C@@H]4F)c(F)cc3F)n2nc1N1CCCS1(=O)=O [Compound 69a, 2-(3-(3,5-difluoro-6-(((3S,4S)-4-fluoropyrrolidin-3-yl)amino)pyridin-2-yl)-7-methoxyimidazo[1,2-b]pyridazin-6-yl)isothiazolidine 1,1-dioxide] | 4 | – | < 0.5 | 125 | – |
| COc1cc2ncc(-c3nc(N[C@H]4CNCC[C@@H]4F)c(F)cc3F)n2nc1N1CCCS1(=O)=O [Compound 70a, 2-(3-(3,5-difluoro-6-(((3S,4S)-4-fluoropiperidin-3-yl)amino)pyridin-2-yl)-7-methoxyimidazo[1,2-b]pyridazin-6-yl)isothiazolidine 1,1-dioxide] | 10 | – | < 0.5 | 60 | – |
| COc1cc2ncc(-c3nc(N[C@@H]4CCCNC4)c(F)cc3F)n2nc1C1COC1 [Compound 72a, (R)-3,5-difluoro-6-(7-methoxy-6-(oxetan-3-yl)imidazo[1,2-b]pyridazin-3-yl)-N-(piperidin-3-yl)pyridin-2-amine] | 28 | – | < 0.5 | 498 | – |
